The text below walks through data of ChEMBL document CHEMBL5154648, “Antitumor activity of novel POLA1-HDAC11 dual inhibitors” (Eur J Med Chem, 2022).

The test system of one assay is NCI-H460. Kind of assay: Induction of cell cycle arrest in human NCI-H460 cells assessed as accumulation of cells at G2/M phase at 0.26 uM after 72 hrs by flow cytometry (reference value: 21.1%). The format is functional. A general note: In flow cytometry, cells or beads pass a laser one at a time.
A further assay has as its system MM473. In words: Induction of cell cycle arrest in human MM473-Luc cells assessed as accumulation of cells at G0/1 phase at 1.4 uM after 72 hrs by flow cytometry (reference value: 74.7%). The format is functional.
A further assay concerns A2780. In words: Induction of cell cycle arrest in human A2780 cells assessed as accumulation of cells at S phase at 0.6 uM after 72 hrs by flow cytometry (reference value: 36.3%). The format is functional.
In assay [1] the target is T1, Histone deacetylase 11 (Homo sapiens) (UniProt Q96DB2).
T1 sequence (whole entry): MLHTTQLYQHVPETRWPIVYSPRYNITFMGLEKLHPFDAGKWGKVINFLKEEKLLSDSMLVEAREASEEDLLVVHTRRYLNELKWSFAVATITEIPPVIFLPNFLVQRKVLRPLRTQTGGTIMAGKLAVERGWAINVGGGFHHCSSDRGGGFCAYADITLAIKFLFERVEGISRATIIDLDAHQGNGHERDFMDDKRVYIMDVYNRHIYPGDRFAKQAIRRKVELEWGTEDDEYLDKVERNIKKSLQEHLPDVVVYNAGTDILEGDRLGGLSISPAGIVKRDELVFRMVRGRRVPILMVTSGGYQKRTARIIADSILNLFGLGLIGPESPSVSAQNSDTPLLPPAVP
Kind of assay: Inhibition of HDAC11 in human MM487 cells at 0.1 to 0.4 uM assessed as induction of p53 acetylation and measured by Western blot analysis. The format is cell-based. Conditions: dose 0.1-0.4 µM. (In western blotting, separated proteins are transferred to a membrane and probed.)

Assay [2] can be described thus: Antitumor activity against human H460-R9A cells xenografted in mouse assessed as tumor growth inhibition at 50 mg/kg, po qd administered 5 times a week for 3 to 4 weeks. Conditions: time 3-4 weeks, read-out: TGI. The format is functional. In general terms: A xenograft is tissue or cells of one species grown in another, often human tumour cells in immunodeficient mice.

Assay [3] in a line: Induction of cell cycle arrest in human H460-R9A cells assessed as accumulation of cells at sub-G1 phase at 2.8 uM after 72 hrs by flow cytometry (reference value: 1.5%). The format is functional.
Assay [4] addresses T1, Histone deacetylase 11 (Homo sapiens). In words: Inhibition of HDAC11 in human MM473 cells at 0.1 to 0.4 uM assessed as induction of p53 acetylation and measured by Western blot analysis. The format is cell-based. The settings on record: dose 0.1-0.4 µM.
The next assay deals with H460-R9A. In words: Antiproliferative activity against human H460-R9A cells at 0.75 to 12 uM in combination with SIS17 after 72 hrs by MTT assay. The format is functional, cell-based. The settings on record: dose 0.75-12 µM.

Calls of active or inactive are those of the source. The rule behind the calls is not given here.

In the case of `CC(Oc1ccc(-c2ccc(C=CC(=O)O)cc2)cc1C12CC3CC(CC(C3)C1)C2)C(=O)NO` (stereo not drawn), the figures for the Activity with NCI-H460 and in the assay with MM473 were 7.8% and 2.3%, respectively.

For the molecule `O=C(O)C=Cc1ccc(-c2ccc(OCC(=O)NO)c(C34CC5CC(CC(C5)C3)C4)c2)cc1`, the Activity in the assay with A2780 stood at 78.9%; in assay [3], 37.8%. Also, the inhibition result in assay [1] and in assay [4] was “Active” throughout. In addition, the inhibition in vivo at 50 mg/kg in assay [2] is 38%.

For the molecule `O=C(O)C=Cc1ccc(-c2ccc(O)c(C34CC5CC(CC(C5)C3)C4)c2)cc1`, the result in the assay with H460-R9A was Active.
